Experimental data: ChEMBL document CHEMBL1201862, “PubChem BioAssay data set” (2004)
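1) Cells in 96-well plates. 2) Compound, 48 h, 5 concentrations. 3) Linear interpolation between surrounding doses. 4) Unreached endpoint = highest concentration. At the GI50, growth is halved.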 The source made the active and inactive calls. Cut-off read from the data, not from the text of the source: active = GI50 up to about 1.1 µM and inactive = higher.

Legend:
Assay in all cases: NCI tumour cell line growth inhibition, 48 h
[1] = system: 786-0
[2] = system: A498
[3] = system: A549
[4] = system: ACHN
[5] = system: BT-549
[6] = system: CAKI-1
[7] = system: CCRF-CEM
[8] = system: COLO 205
[9] = system: DU-145
[10] = system: EKVX
[11] = system: HCC 2998
[12] = system: HCT-116
[13] = system: HCT-15
[14] = system: HL-60
[15] = system: HOP-62
[16] = system: HOP-92
[17] = system: HT-29
[18] = system: Hs-578T
[19] = system: IGROV-1
[20] = system: K562
[21] = system: KM12
[22] = system: LOX IMVI
[23] = system: M14
[24] = system: MCF7
[25] = system: MDA-MB-231
[26] = system: MDA-MB-435
[27] = system: MDA-N
[28] = system: MOLT-4
[29] = system: Malme-3M
[30] = system: NCI-H226
[31] = system: NCI-H460
[32] = system: NCI/ADR-RES
[33] = system: OVCAR-3
[34] = system: OVCAR-4
[35] = system: OVCAR-5
[36] = system: OVCAR-8
[37] = system: PC-3
[38] = system: RPMI-8226
[39] = system: RXF 393
[40] = system: SF-268
[41] = system: SF-295
[42] = system: SF-539
[43] = system: SK-MEL-28
[44] = system: SK-MEL-2
[45] = system: SK-MEL-5
[46] = system: SK-OV-3
[47] = system: SN12C
[48] = system: SNB-19
[49] = system: SNB-75
[50] = system: SR
[51] = system: SW-620
[52] = system: TK-10
[53] = system: UACC-257
[54] = system: UACC-62
[55] = system: UO-31

For `O=[N+]([O-])c1ccccc1S(=O)(=O)c1cccc2c1NCCC2`, the GI50 [1] was > 100 µM (inactive), the GI50 [2] was > 100 µM (inactive) and the GI50 [3] was 31.9 µM (inactive). The GI50 [4] was 55.8 µM (inactive), the GI50 [5] was 32.1 µM (inactive) and the GI50 [6] was 63.5 µM (inactive). The GI50 [7] was 28 µM (inactive), the GI50 [8] was 60.8 µM (inactive) and the GI50 [9] was 60.5 µM (inactive). For the same compound, the GI50 [10] was 99.3 µM (inactive), the GI50 [11] was 56.8 µM (inactive) and the GI50 [12] was 42.7 µM (inactive). The GI50 [13] was 35 µM, the GI50 [14] was 24 µM (inactive) and the GI50 [15] was 72.6 µM (inactive). The GI50 [16] was 32.7 µM (inactive), the GI50 [17] was 29.7 µM (inactive) and the GI50 [18] was 51.1 µM (inactive). The GI50 [19] was 34.3 µM (inactive), the GI50 [20] was 21.3 µM (inactive) and the GI50 [21] was 96.4 µM (inactive). For the same compound, the GI50 [22] was 39.1 µM (inactive), the GI50 [23] was 82.8 µM (inactive) and the GI50 [24] was 38.4 µM (inactive). The GI50 [25] was > 100 µM (inactive), the GI50 [26] was 27.7 µM (inactive) and the GI50 [27] was 28.1 µM (inactive). The GI50 [28] was 21.5 µM (inactive), the GI50 [29] was 48.1 µM (inactive) and the GI50 [30] was 91 µM (inactive). For the same compound, the GI50 [31] was 44.2 µM (inactive), the GI50 [32] was 29 µM (inactive) and the GI50 [33] was 40.6 µM (inactive). For the same compound, the GI50 [34] was > 100 µM (inactive), the GI50 [35] was > 100 µM (inactive) and the GI50 [36] was 69.3 µM (inactive). The GI50 [37] was 27.9 µM (inactive), the GI50 [38] was > 100 µM (inactive) and the GI50 [39] was 37.8 µM (inactive). For the same compound, the GI50 [40] was > 100 µM (inactive), the GI50 [41] was 31.5 µM (inactive) and the GI50 [42] was > 100 µM (inactive). The GI50 [43] was 45.6 µM (inactive), the GI50 [44] was 21.6 µM (inactive) and the GI50 [45] was 19.7 µM (inactive). The GI50 [46] was 68.4 µM (inactive), the GI50 [47] was 86.7 µM (inactive) and the GI50 [48] was 65.2 µM (inactive). For the same compound, the GI50 [49] was 14.8 µM (inactive), the GI50 [50] was 48.2 µM (inactive) and the GI50 [51] was > 100 µM (inactive). For the same compound, the GI50 [52] was > 100 µM (inactive), the GI50 [53] was 18 µM (inactive) and the GI50 [54] was 24.2 µM (inactive). For the same compound, the GI50 [55] was 47.4 µM (inactive).
